{
  "source": "patent US12509446B2",
  "about": "“FYN and VEGFR2 kinase inhibitors” (ROTTAPHARM BIOTECH S.R.L., priority 2019, dated 2025)",
  "key": {"Fyn": {"molecular_target": "Fyn (Homo sapiens (Human), UniProt P06241)", "sequence (P06241 whole entry)": "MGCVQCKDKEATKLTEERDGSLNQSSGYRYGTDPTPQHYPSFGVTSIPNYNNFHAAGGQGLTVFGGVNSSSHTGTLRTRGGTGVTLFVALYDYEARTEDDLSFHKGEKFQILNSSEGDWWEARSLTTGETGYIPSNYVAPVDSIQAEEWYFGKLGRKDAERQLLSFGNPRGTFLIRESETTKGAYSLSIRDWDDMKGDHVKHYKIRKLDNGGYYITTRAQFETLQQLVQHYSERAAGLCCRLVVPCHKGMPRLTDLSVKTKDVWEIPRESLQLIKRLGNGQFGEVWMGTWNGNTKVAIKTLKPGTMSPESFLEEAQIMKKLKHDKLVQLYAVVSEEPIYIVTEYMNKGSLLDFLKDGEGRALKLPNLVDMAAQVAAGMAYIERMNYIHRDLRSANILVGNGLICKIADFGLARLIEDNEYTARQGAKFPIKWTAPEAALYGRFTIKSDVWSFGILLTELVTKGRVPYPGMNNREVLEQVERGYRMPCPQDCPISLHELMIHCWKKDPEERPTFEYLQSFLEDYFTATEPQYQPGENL", "experiment": "Z′-LYTE in vitro Fyn kinase activity assay", "assay_type": "biochemical", "settings": "ATP 50 μM; read-out: FYN KINASE INHIBITION IC50", "summary_of_the_method": "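Z′-LYTE FRET format with full-length active Fyn in 50 mM Hepes pH 7.5, 10 mM MgCl2, 1 mM EGTA, 0.01% Brij-35, 1% DMSO final; 60 minutes at 25° C. Percent phosphorylation from 0% and 100% phosphorylation controls; IC50 by non-linear curve fitting of percent inhibition.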"}, "VEGFR2": {"molecular_target": "VEGFR2 (Homo sapiens (Human), UniProt P35968)", "sequence (P35968 20-1356)": "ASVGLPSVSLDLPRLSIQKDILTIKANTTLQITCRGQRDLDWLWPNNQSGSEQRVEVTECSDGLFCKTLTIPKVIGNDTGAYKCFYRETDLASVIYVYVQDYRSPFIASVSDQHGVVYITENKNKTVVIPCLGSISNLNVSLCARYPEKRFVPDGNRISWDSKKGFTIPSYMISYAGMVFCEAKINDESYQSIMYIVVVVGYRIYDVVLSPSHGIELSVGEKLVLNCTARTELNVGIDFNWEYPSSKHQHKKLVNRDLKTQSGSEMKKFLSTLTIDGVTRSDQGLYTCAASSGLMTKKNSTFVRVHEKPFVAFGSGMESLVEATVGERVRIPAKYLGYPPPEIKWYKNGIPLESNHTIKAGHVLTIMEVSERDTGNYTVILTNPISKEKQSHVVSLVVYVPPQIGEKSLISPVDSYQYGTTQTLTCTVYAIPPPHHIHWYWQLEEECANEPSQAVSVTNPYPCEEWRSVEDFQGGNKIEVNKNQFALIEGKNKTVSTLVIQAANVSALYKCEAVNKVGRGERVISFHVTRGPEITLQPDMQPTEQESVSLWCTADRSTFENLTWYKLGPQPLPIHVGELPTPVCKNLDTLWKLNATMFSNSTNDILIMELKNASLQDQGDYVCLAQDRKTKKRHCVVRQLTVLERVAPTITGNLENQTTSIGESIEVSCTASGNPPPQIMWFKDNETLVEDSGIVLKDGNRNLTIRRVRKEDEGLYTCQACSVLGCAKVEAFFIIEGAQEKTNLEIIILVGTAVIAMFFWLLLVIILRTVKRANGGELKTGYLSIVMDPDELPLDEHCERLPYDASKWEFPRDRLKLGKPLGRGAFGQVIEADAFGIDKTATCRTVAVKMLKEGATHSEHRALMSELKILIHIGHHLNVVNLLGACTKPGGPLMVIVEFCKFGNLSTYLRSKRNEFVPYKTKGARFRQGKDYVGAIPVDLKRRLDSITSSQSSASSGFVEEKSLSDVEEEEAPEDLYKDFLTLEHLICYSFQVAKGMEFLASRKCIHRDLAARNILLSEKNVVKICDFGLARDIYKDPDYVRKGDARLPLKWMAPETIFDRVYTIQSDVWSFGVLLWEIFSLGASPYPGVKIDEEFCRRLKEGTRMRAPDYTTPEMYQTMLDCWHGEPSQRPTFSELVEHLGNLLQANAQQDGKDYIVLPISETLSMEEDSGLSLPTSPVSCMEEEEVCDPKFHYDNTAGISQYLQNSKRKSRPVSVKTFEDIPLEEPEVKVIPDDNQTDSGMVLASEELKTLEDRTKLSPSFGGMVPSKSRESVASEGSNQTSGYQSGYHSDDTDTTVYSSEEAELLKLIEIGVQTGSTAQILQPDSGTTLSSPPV", "experiment": "In vitro VEGFR2 kinase activity assay (Eurofins Cerep)", "assay_type": "biochemical", "settings": "read-out: VEGFR2 KINASE INHIBITION IC50", "summary_of_the_method": "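Contract biochemical kinase assay on human VEGFR2 with inhibitors at 10^−8 to 10^−5 M final (some re-tested from 10^−9 M). Activity expressed as percent of no-compound control; IC50 by non-linear regression of mean replicate inhibition curves.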"}, "NF-kB": {"test_system": "NF-kB", "experiment": "Gene reporter (GR) assay, NF-kB activation after TNFα in JB6 Cl 41-5a (P+) cells", "assay_type": "cell-based, murine", "settings": "TNFα 2 ng/ml, non toxic concentrations, read-out: Gene reporter (GR) inhibition IC50", "summary_of_the_method": "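TNFα (2 ng/ml, 4 h) stimulation followed 1 h compound pre-treatment in NF-kB-luciferase-transfected mouse JB6 (P+) epithelial cells. Reporter luminescence and cell viability were read together, each condition in quadruplicate.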"}, "IL-1β": {"test_system": "IL-1β", "experiment": "Gene expression in rat articular chondrocytes under IL-1β stimulation, IL-1β", "assay_type": "cell-based", "settings": "for IL-1β gene expression, percentage of inhibitory effect at the highest non toxic concentration: 6 h", "summary_of_the_method": "(§1)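 Rat chondrocytes, day 10 post-plating; switched to DMEM GlutaMAX I 0.4%; compound + cytokine 2 ng/ml; 6 h (IL-1β, ADAMTS-5) or 24 h (MMP3, MMP13); total RNA → cDNA → TaqMan qPCR, 18S-normalised.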"}, "IL-6": {"test_system": "IL-6", "experiment": "Gene expression in rat articular chondrocytes under IL-1β stimulation, IL-6", "assay_type": "cell-based", "settings": "6 h"}, "COX2": {"test_system": "COX2", "experiment": "Gene expression in rat articular chondrocytes under IL-1β stimulation, COX2", "assay_type": "cell-based", "settings": "for COX2 gene expression, percentage of inhibitory effect at the highest non toxic concentration: 24 h"}, "ADAMTS-5": {"test_system": "ADAMTS-5", "experiment": "Gene expression in rat articular chondrocytes under IL-1β stimulation, ADAMTS-5", "assay_type": "cell-based", "settings": "for ADAMTS-5 gene expression, percentage of inhibitory effect at the highest non toxic concentration: 6 h; for IC50: Rattus norvegicus, Chondrocyte, 6 h incubation", "summary_of_the_method": "as §1"}, "MMP3": {"test_system": "MMP3", "experiment": "Gene expression in rat articular chondrocytes under IL-1β stimulation, MMP3", "assay_type": "cell-based", "settings": "for MMP3 gene expression, percentage of inhibitory effect at the highest non toxic concentration: 24 h", "summary_of_the_method": "as §1"}, "MMP13": {"test_system": "MMP13", "experiment": "Gene expression in rat articular chondrocytes under IL-1β stimulation, MMP13", "assay_type": "cell-based", "settings": "24 h", "summary_of_the_method": "as §1"}, "[1]": {"test_system": "bovine nasal septum cartilage", "experiment": "Inhibition of cartilage degradation (GAG release) induced by IL-1α in a bovine in vitro model", "assay_type": "cell-based", "parameters": "key to Bovine cartilage degradation induced by IL-1α, no effect: ne: no effect", "summary_of_the_method": "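Cartilage punches (2 mm) from an 8-month-old male bovine nasal septum were cultured 48 h, then stimulated 48 h with IL-1α […] ± compound in DMEM + 0.1% BSA. Compound doses were set from 48 h rat chondrocyte toxicity. GAG in medium and papain-digested tissue was measured by DMB absorbance at 590 nm; degradation = medium GAG/total GAG × 100.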"}, "[2]": {"test_system": "rat primary articular chondrocytes", "method": "(§2) Purified chondrocytes were resuspended in DMEM glutaMAX 10% and plated in a 96X well plate for toxicity analysis and in a 6X well plate for gene expression analysis.\n(§3) For toxicity analysis cells were then treated with the different compounds for 24 and 48 h. At the end of the incubation time, the medium was removed and was substituted with a mixture 10:1 of DMEM glutaMAX 10%—MTT (2 mg/ml) for 1 h at 37° C. in the cell incubator. After this incubation, the precipitated salt was dissolved with 100 μl of DMSO and the plate was read at 540 nm. The toxicity analysis were performed to decide the maximal non toxic concentration of each compound used in the gene expression assay."}, "[3]": {"test_system": "rat primary articular chondrocytes", "experiment": "Toxicity analysis (MTT) in rat primary chondrocytes", "settings": "for First toxic concentration at 24 h: rat primary chondrocytes", "method": "as §2, §3"}, "[4]": {"settings": "Rattus norvegicus, Chondrocyte, 24 h incubation"}},
  "note": "Read-outs that look alike come from different tables or passages of the source.",
  "data": [
    {"smiles": "CC(=O)N1Cc2cnc(Nc3cc(CCc4cc(NC(=O)c5cccc(C(F)(F)F)c5)ccc4C)n[nH]3)cc2C1", "note": "[Compound 34, N-(3-(2-(5-((2-acetyl-2,3-dihydro-1H-pyrrolo[3,4-c]pyridin-6-yl)amino)-1H-pyrazol-3-yl)ethyl)-4-methylphenyl)-3-(trifluoromethyl) benzamide]", "values": [
      {"measurement": "IC50", "setting": "Fyn", "value": 0.006, "unit": "µM"},
      {"measurement": "IC50", "setting": "VEGFR2", "value": "< 0.01", "unit": "µM"},
      {"measurement": "IC50", "setting": "NF-kB", "value": 0.958, "unit": "µM"},
      {"measurement": "IL-1β gene expression, percentage of inhibitory effect at the highest non toxic concentration", "setting": "IL-1β; 3 μM", "value": 3, "unit": "μM 99%"},
      {"measurement": "IL-6 gene expression, percentage of inhibitory effect at the highest non toxic concentration", "setting": "IL-6; 3 μM", "value": 3, "unit": "μM 100%"},
      {"measurement": "COX2 gene expression, percentage of inhibitory effect at the highest non toxic concentration", "setting": "COX2; 3 μM", "value": 3, "unit": "μM 76%"},
      {"measurement": "ADAMTS-5 gene expression, percentage of inhibitory effect at the highest non toxic concentration", "setting": "ADAMTS-5; 3 μM", "value": 3, "unit": "μM 97%"},
      {"measurement": "MMP3 gene expression, percentage of inhibitory effect at the highest non toxic concentration", "setting": "MMP3; 3 μM", "value": 3, "unit": "μM 58%"},
      {"measurement": "MMP13 gene expression, percentage of inhibitory effect at the highest non toxic concentration", "setting": "MMP13; 3 μM", "value": 3, "unit": "μM 82%"},
      {"measurement": "Bovine cartilage degradation induced by IL-1α, % inhibitory effect at max concentration", "setting": "[1]; 1 μM", "value": 96, "unit": "%"},
      {"measurement": "Inhibitory effect on the GAG release", "setting": "[1]; at max concentration", "value": "95-100%"},
      {"measurement": "First toxic concentration at 24 h", "setting": "[2]", "value": 10, "unit": "µM"},
      {"measurement": "First toxic concentration at 48 h in rat primary chondrocytes", "setting": "[2]", "value": 3, "unit": "µM"}
    ]},
    {"smiles": "Cc1ccc(NC(=O)c2ccnc(C(C)(C)C#N)c2)cc1CCc1cc(Nc2cnccn2)[nH]n1", "note": "[Compound 2, 2-(2-cyanopropan-2-yl)-N-(4-methyl-3-(2-(5-(pyrazin-2-ylamino)-1H-pyrazol-3-yl)ethyl)phenyl)isonicotinamide]", "values": [
      {"measurement": "IC50", "setting": "Fyn", "value": 0.01, "unit": "µM"},
      {"measurement": "IC50", "setting": "VEGFR2", "value": "< 0.01", "unit": "µM"},
      {"measurement": "IC50", "setting": "NF-kB; Mus musculus, JB6 Cl 41-5a", "value": 0.312, "unit": "µM"},
      {"measurement": "IL-1β gene expression, percentage of inhibitory effect at the highest non toxic concentration", "setting": "IL-1β; 10 μM", "value": 10, "unit": "μM 100%"},
      {"measurement": "IL-6 gene expression, percentage of inhibitory effect at the highest non toxic concentration", "setting": "IL-6; 10 μM", "value": 10, "unit": "μM 100%"},
      {"measurement": "COX2 gene expression, percentage of inhibitory effect at the highest non toxic concentration", "setting": "COX2; 10 μM", "value": 10, "unit": "μM 100%"},
      {"measurement": "ADAMTS-5 gene expression, percentage of inhibitory effect at the highest non toxic concentration", "setting": "ADAMTS-5; 10 μM", "value": 10, "unit": "μM 94%"},
      {"measurement": "MMP3 gene expression, percentage of inhibitory effect at the highest non toxic concentration", "setting": "MMP3; 10 μM", "value": 10, "unit": "μM 92%"},
      {"measurement": "MMP13 gene expression, percentage of inhibitory effect at the highest non toxic concentration", "setting": "MMP13; 10 μM", "value": 10, "unit": "μM 99%"},
      {"measurement": "IC50", "setting": "[1]; Bos taurus, head says nM, cells print μM, 48 h stimulation, read-out: Inhibitory effect on bovine cartilage degradation induced by IL-1α, IC50", "value": 800, "unit": "nM"},
      {"measurement": "First toxic concentration at 48 h in rat primary chondrocytes", "setting": "[3]", "value": ">10", "unit": "µM"},
      {"measurement": "First toxic concentration at 24 h", "setting": "[3]", "value": ">10", "unit": "µM"}
    ]},
    {"smiles": "Cc1ncc(Nc2cc(CCc3cc(NC(=O)c4cccc(C(F)(F)F)c4)ccc3F)n[nH]2)cn1", "note": "[Compound 40, N-(4-fluoro-3-(2-(5-((2-methylpyrimidin-5-yl)amino)-1H-pyrazol-3-yl)ethyl)phenyl)-3-(trifluoromethyl)benzamide]", "values": [
      {"measurement": "IC50", "setting": "Fyn", "value": 0.099, "unit": "µM"},
      {"measurement": "IC50", "setting": "VEGFR2", "value": "< 0.01", "unit": "µM"},
      {"measurement": "IC50", "setting": "NF-kB; Mus musculus, JB6 Cl 41-5a", "value": 0.515, "unit": "µM"},
      {"measurement": "IL-1β gene expression, percentage of inhibitory effect at the highest non toxic concentration", "setting": "IL-1β; 10 μM", "value": 10, "unit": "μM 100%"},
      {"measurement": "IL-6 gene expression, percentage of inhibitory effect at the highest non toxic concentration", "setting": "IL-6; 10 μM", "value": 10, "unit": "μM 100%"},
      {"measurement": "COX2 gene expression, percentage of inhibitory effect at the highest non toxic concentration", "setting": "COX2; 10 μM", "value": 10, "unit": "μM 100%"},
      {"measurement": "IC50", "setting": "ADAMTS-5", "value": 2.3, "unit": "µM"},
      {"measurement": "IC50", "setting": "MMP3; [4]", "value": 0.5, "unit": "µM"},
      {"measurement": "MMP13 gene expression, percentage of inhibitory effect at the highest non toxic concentration", "setting": "MMP13; 10 μM", "value": 10, "unit": "μM 100%"},
      {"measurement": "inhibition at 3 µM", "setting": "[1]; Bos taurus, 3 μM, read-out: Bovine cartilage degradation induced by IL-1α, % inhibitory effect at max concentration", "value": 49, "unit": "%"},
      {"measurement": "First toxic concentration at 48 h in rat primary chondrocytes", "setting": "[3]", "value": 10, "unit": "µM"},
      {"measurement": "First toxic concentration at 24 h", "setting": "[3]", "value": ">10", "unit": "µM"}
    ]},
    {"smiles": "CCNC1(c2ccc(C(=O)Nc3ccc(C)c(CCc4cc(Nc5cnccn5)[nH]n4)c3)cc2)CC1", "note": "[Compound 4, 4-(1-(ethylamino)cyclopropyl)-N-(4-methyl-3-(2-(5-(pyrazin-2-ylamino)-1H-pyrazol-3-yl)ethyl)phenyl)benzamide]", "values": [
      {"measurement": "IC50", "setting": "Fyn", "value": 0.021, "unit": "µM"},
      {"measurement": "IC50", "setting": "VEGFR2", "value": "< 0.01", "unit": "µM"},
      {"measurement": "IC50", "setting": "NF-kB; Mus musculus, JB6 Cl 41-5a", "value": 2.23, "unit": "µM"},
      {"measurement": "IC50", "setting": "IL-1β; Rattus norvegicus, Chondrocyte, 6 h incubation", "value": 1.7, "unit": "µM"},
      {"measurement": "IL-6 gene expression, percentage of inhibitory effect at the highest non toxic concentration", "setting": "IL-6; 10 μM", "value": 10, "unit": "μM 93%"},
      {"measurement": "IC50", "setting": "COX2; [4]", "value": 1.4, "unit": "µM"},
      {"measurement": "IC50", "setting": "ADAMTS-5", "value": 3, "unit": "µM"},
      {"measurement": "MMP3 gene expression, percentage of inhibitory effect at the highest non toxic concentration", "setting": "MMP3; 10 μM", "value": 10, "unit": "μM 55%"},
      {"measurement": "MMP13 gene expression, percentage of inhibitory effect at the highest non toxic concentration", "setting": "MMP13; 10 μM", "value": 10, "unit": "μM 84%"},
      {"measurement": "Bovine cartilage degradation induced by IL-1α, no effect", "setting": "[1]", "value": "ne"},
      {"measurement": "First toxic concentration at 48 h in rat primary chondrocytes", "setting": "[3]", "value": 3, "unit": "µM"},
      {"measurement": "First toxic concentration at 24 h", "setting": "[3]", "value": ">10", "unit": "µM"}
    ]}
  ]
}
